Structures are written as SMILES.

This note sets out measurements from publication PMC5357620, “The NiFe Hydrogenases of the Tetrachloroethene-Respiring Epsilonproteobacterium Sulfurospirillum multivorans: Biochemical Studies and Transcription Analysis” (Frontiers in Microbiology, 2017).

The target of the assay is T1, membrane-bound hydrogenase (MBH, HydABC) (Sulfurospirillum multivorans, UniProt A0AA86ALJ1+A0AA86ANH9+A0AA86DZD7).
T1 construct: gene hydB; HydA TAT signal peptide cleaved; predicted HydB 62, HydA 34, HydC 26 kDa; dimer of heterotrimers, about 270 kDa; with Periplasmic [NiFe] hydrogenase, large subunit
T1 sequence (A0AA86DZD7 1-561): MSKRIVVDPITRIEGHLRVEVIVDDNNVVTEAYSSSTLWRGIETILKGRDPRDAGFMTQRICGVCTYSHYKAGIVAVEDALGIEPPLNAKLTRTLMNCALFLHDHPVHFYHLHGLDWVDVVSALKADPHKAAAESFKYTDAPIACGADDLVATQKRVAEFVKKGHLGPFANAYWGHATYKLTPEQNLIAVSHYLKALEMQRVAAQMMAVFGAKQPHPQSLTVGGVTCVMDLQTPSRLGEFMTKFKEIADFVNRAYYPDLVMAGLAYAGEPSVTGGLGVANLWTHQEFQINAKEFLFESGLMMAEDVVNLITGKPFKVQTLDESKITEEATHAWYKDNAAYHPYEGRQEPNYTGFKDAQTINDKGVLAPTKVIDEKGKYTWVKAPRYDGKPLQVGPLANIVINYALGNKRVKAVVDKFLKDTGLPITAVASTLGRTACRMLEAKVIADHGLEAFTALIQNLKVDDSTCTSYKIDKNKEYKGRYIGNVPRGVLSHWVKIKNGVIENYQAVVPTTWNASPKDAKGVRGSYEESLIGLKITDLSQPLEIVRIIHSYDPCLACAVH
T1 sequence (A0AA86ALJ1 68-385): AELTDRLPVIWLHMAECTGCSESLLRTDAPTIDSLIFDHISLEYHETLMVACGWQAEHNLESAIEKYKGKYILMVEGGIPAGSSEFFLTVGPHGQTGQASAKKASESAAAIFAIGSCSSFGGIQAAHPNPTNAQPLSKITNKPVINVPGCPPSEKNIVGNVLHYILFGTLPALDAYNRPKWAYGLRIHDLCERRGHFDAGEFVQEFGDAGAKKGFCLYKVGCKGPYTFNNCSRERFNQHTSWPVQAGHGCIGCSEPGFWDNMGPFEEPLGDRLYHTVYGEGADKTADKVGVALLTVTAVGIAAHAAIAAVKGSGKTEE
T1 sequence (A0AA86ANH9 1-225): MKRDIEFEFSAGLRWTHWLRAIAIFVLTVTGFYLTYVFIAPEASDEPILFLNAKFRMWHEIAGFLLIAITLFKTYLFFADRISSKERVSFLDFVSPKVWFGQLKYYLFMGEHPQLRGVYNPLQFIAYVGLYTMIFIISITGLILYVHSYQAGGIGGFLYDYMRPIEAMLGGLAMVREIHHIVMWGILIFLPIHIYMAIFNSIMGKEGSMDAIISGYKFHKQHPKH
The assay can be described thus: spectrophotometric H2-dependent DMN reduction, […] nm minus […] nm. The settings on record: H2 as electron donor; 0.2 mM DMN; 50 mM glycylglycine pH 8.0; 0.5 mM DTT; electron acceptor, presumably via HydC cytochrome b; partially purified enzyme. It is filed as biochemical.

Take `CC1=C(C)C(=O)c2ccccc2C1=O` [DMN, 2,3-dimethyl-1,4-naphthoquinone]: the “spectrophotometric H2-dependent DMN reduction, 270 nm minus 290 nm” value is recorded as “both fractions showed activity with DMN as electron acceptor”.
